{"source": "paper PMC7204872", "about": "“The Biosynthesis of the Benzoxazole in Nataxazole Proceeds via an Unstable Ester and has Synthetic Utility” (Angewandte Chemie (International Ed. in English), 2020)", "key": {"NatL2 [1]": {"biological_target": "T1, NatL2 (Streptomyces sp. Tu 6176, UniProt A0A022MRT4)", "T1 construct": "N-terminal hexahistidine-tagged, expressed in E. coli; homodimer, structural Zn2+; residues 5-436 traced (C-terminal extension 405-436)", "T1 sequence (A0A022MRT4 1-436)": "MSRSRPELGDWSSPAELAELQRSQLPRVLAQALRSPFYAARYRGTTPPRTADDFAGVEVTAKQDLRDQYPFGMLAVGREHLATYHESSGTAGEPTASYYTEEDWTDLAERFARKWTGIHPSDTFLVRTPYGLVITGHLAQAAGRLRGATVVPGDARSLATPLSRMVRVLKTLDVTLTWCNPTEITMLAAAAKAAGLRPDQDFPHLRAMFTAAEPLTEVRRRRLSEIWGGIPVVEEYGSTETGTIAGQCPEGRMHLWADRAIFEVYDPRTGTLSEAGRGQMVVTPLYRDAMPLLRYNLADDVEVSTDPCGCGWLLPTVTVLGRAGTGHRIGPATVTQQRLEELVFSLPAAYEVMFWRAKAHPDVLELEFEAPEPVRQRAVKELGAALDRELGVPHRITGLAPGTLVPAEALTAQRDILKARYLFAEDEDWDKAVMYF", "experiment": "X-ray crystallography (soaked crystal)", "type": "binding"}, "NatL2 [2]": {"biological_target": "T1, NatL2", "experiment": "X-ray crystallography, […] Å", "type": "binding", "settings": "crystallised in the presence of ATP; density modelled as AMP; Lys418 from other monomer"}}}
{"smiles": "Nc1ncnc2c1ncn2[C@@H]1O[C@H](COP(=O)(O)OP(=O)(O)NP(=O)(O)O)[C@@H](O)[C@H]1O", "note": "[AMPPNP]", "values": [{"measurement": "X-ray crystallography (soaked crystal)", "setting": "NatL2 [1]; nucleotide site, binary complex and ternary with 3-HAA, no Mg2+ density", "result": "These crystals were soaked with AMPPNP and the resulting complex was essentially identical"}]}
{"smiles": "O=C(O)c1ccccc1O", "note": "[SA]", "values": [{"measurement": "X-ray crystallography (soaked crystal)", "setting": "NatL2 [1]; soak of AMP:3-HAA crystals, two SA molecules in subunit A, no AMP, SA1 in 3-HAA1 pocket, SA2 in second substrate pocket, not turned over", "result": "In subunit A, two molecules of SA are bound but no AMP"}]}
{"smiles": "Nc1ncnc2c1ncn2[C@@H]1O[C@H](COP(=O)(O)O)[C@@H](O)[C@H]1O", "note": "[AMP]", "values": [{"measurement": "X-ray crystallography, 1.9 Å", "setting": "NatL2 [2]", "result": "Residual electron density in both monomers was best modelled as AMP not ATP"}]}
